Reference: patent US20100160335A1, “PYRIDAZINONE DERIVATIVE AND PDE INHIBITOR CONTAINING THE SAME AS ACTIVE INGREDIENT” (KYORIN PHARMACEUTICAL CO., LTD., priority 2007, published 2010)

What was measured:
[1] = target: T1, PDE3A catalytic domain (PDE3Acat) (Homo sapiens, UniProt Q14432); experiment: Phosphodiesterase inhibitory activity, PDE3 ([3H]cAMP, recombinant enzyme); assay type: biochemical; details: 30° C., 20 minutes, read-out: IC50(μmol/L) PDE3
T1 construct: made in house; host or cells: Sf9 insect cells (baculovirus, Bac-to-Bac / Gateway)

PDE4Bcat = target: T2, PDE4Bcat (Homo sapiens, UniProt Q07343); experiment: Phosphodiesterase inhibitory activity, PDE4 ([3H]cAMP, recombinant enzyme); assay type: biochemical; details: 30° C., 20 minutes, read-out: IC50(μmol/L) PDE4
T2 construct: made in house; host or cells: Sf9 insect cells (baculovirus, Bac-to-Bac / Gateway)
T2 sequence (Q07343 330-659 limits assumed): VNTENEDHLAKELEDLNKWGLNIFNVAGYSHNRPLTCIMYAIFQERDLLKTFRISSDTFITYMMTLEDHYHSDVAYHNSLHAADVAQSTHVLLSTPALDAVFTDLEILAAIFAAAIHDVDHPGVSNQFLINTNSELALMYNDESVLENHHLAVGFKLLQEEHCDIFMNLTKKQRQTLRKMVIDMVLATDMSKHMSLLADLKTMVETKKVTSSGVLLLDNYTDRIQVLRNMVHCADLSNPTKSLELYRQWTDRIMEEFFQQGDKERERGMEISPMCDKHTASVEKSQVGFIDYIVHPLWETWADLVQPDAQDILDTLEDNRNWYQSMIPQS

T1 sequence (Q14432 674-1093 limits assumed): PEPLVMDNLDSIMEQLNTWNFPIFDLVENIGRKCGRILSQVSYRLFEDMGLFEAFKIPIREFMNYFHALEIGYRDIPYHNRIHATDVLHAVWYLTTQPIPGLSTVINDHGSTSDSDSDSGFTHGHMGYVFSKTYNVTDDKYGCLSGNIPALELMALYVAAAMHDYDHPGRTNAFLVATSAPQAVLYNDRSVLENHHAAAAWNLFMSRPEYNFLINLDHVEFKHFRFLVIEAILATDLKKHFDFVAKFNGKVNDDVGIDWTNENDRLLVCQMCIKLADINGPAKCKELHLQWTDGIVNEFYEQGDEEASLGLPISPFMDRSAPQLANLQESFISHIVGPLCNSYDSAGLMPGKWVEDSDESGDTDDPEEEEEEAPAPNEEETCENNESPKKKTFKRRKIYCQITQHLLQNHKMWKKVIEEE

Compound | IC50 [1] | IC50 (PDE4Bcat)
COc1ccc(C2=NN(CCCCOc3ccc(C4=NNC(=O)CC4C)cc3)C(=O)CC2C)c2cc(C(F)(F)F)oc12 (stereo not shown) [Example 310] | 0.1 to 1 µmol/L | < 0.1 µmol/L
COc1ccc(C2=NN(CCCCOc3ccc(C4=NNC(=O)CC4C)cc3)C(=O)CC2C)c2cc(C(F)(F)F)sc12 (stereo not shown) [Example 311] | < 0.1 µmol/L | 1 to 10 µmol/L
CCc1ccc2c(-c3ccc(=O)n(CCOc4ccc(C5=NNC(=O)CC5C)c(F)c4F)n3)ccc(OC)c2n1 (stereo not shown) [Example 324, 6-(2-Ethyl-8-methoxyquinolin-5-yl)-2-[2-[2,3-difluoro-4-(4-methyl-6-oxo-1,4,5,6-tetrahydropyridazin-3-yl)phenoxy]ethyl]-2H-pyridazin-3-one] | < 0.1 µmol/L | 0.1 to 1 µmol/L
CCc1ccc2c(-c3ccc(=O)n(CCCOc4ccc(C5=NNC(=O)C5(C)C)c(F)c4F)n3)ccc(OC)c2n1 [Example 327, 6-(2-Ethyl-8-methoxyquinolin-5-yl)-2-[3-[2,3-difluoro-4-(4,4-dimethyl-5-oxo-4,5-dihydro-1H-pyrazol-3-yl)phenoxy]propyl]-2H-pyridazin-3-one] | 1 to 10 µmol/L | 0.1 to 1 µmol/L
COc1ccc(-c2ccc(=O)n(CCCCOc3ccc(C4=NNC(=O)CC4C)c(F)c3F)n2)c2cc(C(F)(F)F)sc12 (stereo not shown) [Example 330, 2-[4-[2,3-Difluoro-4-(4-methyl-6-oxo-1,4,5,6-tetrahydropyridazin-3-yl)phenoxy]butyl]-6-(7-methoxy-2-trifluoromethylbenzo[b]thiophen-4-yl)-2H-pyridazin-3-one] | < 0.1 µmol/L | 1 to 10 µmol/L

Further lines, results first:

IC50 [1] | IC50 (PDE4Bcat) | Compound
< 0.1 µmol/L | < 0.1 µmol/L | COc1ccc(-c2ccc(=O)n(CCCCOc3ccc(C4=NNC(=O)C4(C)C)c(F)c3F)n2)c2sc(C(F)(F)F)nc12 [Example 309, 2-[4-[2,3-Difluoro-4-(4,4-dimethyl-5-oxo-4,5-dihydro-1H-pyrazol-3-yl)phenoxy]butyl]-6-(4-methoxy-2-trifluoromethylbenzothiazol-7-yl)-2H-pyridazin-3-one]
0.1 to 1 µmol/L | < 0.1 µmol/L | COc1ccc(C2=NN(CCCCOc3ccc(C4=NNC(=O)CC4C)cc3)C(=O)CC2C)c2sc(C(F)(F)F)nc12 (stereo not shown) [Example 313, 6-(4-Methoxy-2-trifluoromethylbenzothiazol-7-yl)-5-methyl-2-[4-[4-(4-methyl-6-oxo-1,4,5,6-tetrahydropyridazin-3-yl)phenoxy]butyl]-4,5-dihydro-2H-pyridazin-3-one]
0.1 to 1 µmol/L | 0.1 to 1 µmol/L | COc1ccc(-c2ccc(=O)n(CCCCOc3ccc(C4=NNC(=O)CC4C)cc3)n2)c2ccc(C(F)(F)F)nc12 (stereo not shown) [Example 321, 6-(8-Methoxy-2-trifluoromethylquinolin-5-yl)-2-[4-[4-(4-methyl-6-oxo-1,4,5,6-tetrahydropyridazin-3-yl)phenoxy]butyl]-2H-pyridazin-3-one]
0.1 to 1 µmol/L | 0.1 to 1 µmol/L | CCc1ccc2c(-c3ccc(=O)n(CCCOc4ccc(C5=NNC(=O)CC5C)c(F)c4F)n3)ccc(OC)c2n1 (stereo not shown) [Example 325, 6-(2-Ethyl-8-methoxyquinolin-5-yl)-2-[3-[2,3-difluoro-4-(4-methyl-6-oxo-1,4,5,6-tetrahydropyridazin-3-yl)phenoxy]propyl]-2H-pyridazin-3-one]
1 to 10 µmol/L | 1 to 10 µmol/L | CCc1ccc2c(-c3ccc(=O)n(CCCOc4ccc(C5=NNC(=O)CC5)c(F)c4F)n3)ccc(OC)c2n1 [Example 326, 6-(2-Ethyl-8-methoxyquinolin-5-yl)-2-[3-[2,3-difluoro-4-(6-oxo-1,4,5,6-tetrahydropyridazin-3-yl)phenoxy]propyl]-2H-pyridazin-3-one]
< 0.1 µmol/L | 1 to 10 µmol/L | COc1ccc(-c2ccc(=O)n(CCCCOc3ccc(C4=NNC(=O)CC4)c(F)c3F)n2)c2cc(C(F)(F)F)sc12 [Example 331, 2-[4-[2,3-Difluoro-4-(6-oxo-1,4,5,6-tetrahydropyridazin-3-yl)phenoxy]butyl]-6-(7-methoxy-2-trifluoromethylbenzo[b]thiophen-4-yl)-2H-pyridazin-3-one]
